According to US20020165128A1, “Compositions and methods for proteolytically inactivating infectious agents using lactoferrin and related molecules” (priority 1998, published 2002):

Legend:
[1] = target: T1, lactoferrin-associated proteolysis of H. influenzae Hap (Homo sapiens, UniProt P02788); test: Inhibition of lactoferrin-associated proteolysis of Hap by serine protease inhibitor; type: cell-based; conditions: 7.5 mM inhibitor in isopropanol, DB117/HapS243A
T1 construct: Lactoferrin amino acids are numbered beginning with the first residue in the mature protein (lacking the signal peptide); purchased Agennix Corporation; host or cells: Aspergillus awamori
Description: To determine whether lactoferrin was functioning as a serine protease, the ability of phenylmethylsulfonyl fluoride (PMSF), a broad inhibitor of serine proteases, to inhibit degradation of Hap was examined. DB117/HapS243A was incubated in PBS (Lane 1), PBS with 430 nM A. awamori recombinant lactoferrin (Lane 2), PBS with 430 nM recombinant lactoferrin and 7.5% isopropanol (Lane 3), or PBS with recombinant lactoferrin and 7.5 mM PMSF in isopropanol (Lane 4). Whole cell lysates were prepared and examined by Western blot analysis with antiserum Rab 730, which reacts with the Hap preprotein, HapS, and Hap. The arrowhead indicates the Hap preprotein, and the arrows indicate Hap degradation products.

[2] = target: lactoferrin extraction of the IgA1 protease preprotein (Homo sapiens, UniProt P02788); type: cell-based; conditions: 10 mM inhibitor
Sequence of lactoferrin extraction of the IgA1 protease preprotein (P02788 20-710): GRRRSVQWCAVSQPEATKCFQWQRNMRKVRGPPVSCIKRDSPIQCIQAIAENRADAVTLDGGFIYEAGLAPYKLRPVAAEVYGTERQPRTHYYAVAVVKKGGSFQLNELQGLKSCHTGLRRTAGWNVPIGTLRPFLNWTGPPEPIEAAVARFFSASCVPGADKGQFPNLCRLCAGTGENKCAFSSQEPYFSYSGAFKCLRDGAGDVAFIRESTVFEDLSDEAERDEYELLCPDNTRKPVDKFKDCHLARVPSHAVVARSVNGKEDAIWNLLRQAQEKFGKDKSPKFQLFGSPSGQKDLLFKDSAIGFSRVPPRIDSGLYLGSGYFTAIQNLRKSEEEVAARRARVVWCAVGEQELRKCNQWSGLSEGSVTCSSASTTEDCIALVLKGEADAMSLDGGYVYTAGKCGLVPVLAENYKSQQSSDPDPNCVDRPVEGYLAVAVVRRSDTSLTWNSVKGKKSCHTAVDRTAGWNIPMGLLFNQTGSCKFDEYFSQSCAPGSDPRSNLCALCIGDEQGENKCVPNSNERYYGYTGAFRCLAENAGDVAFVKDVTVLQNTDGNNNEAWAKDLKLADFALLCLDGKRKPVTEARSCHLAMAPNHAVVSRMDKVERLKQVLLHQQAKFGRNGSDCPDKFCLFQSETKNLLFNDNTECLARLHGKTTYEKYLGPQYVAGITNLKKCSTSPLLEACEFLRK

T1 sequence (P02788 20-710): as above

Structure (SMILES): O=S(=O)(F)Cc1ccccc1 [PMSF, phenylmethylsulfonyl fluoride]
- inhibition of proteolysis of Hap produced by 430 nM recombinant lactoferrin [1]: significantly inhibited
- inhibition of lactoferrin extraction of IgA1 protease preprotein [2]: inhibited
